In PubChem BioAssay (NCI):
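GI50 marks 50% less growth. TGI is the concentration that stops growth completely.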

What was measured:
Experiment in all cases: NCI-60 cell line screen, 384-well format
KM12 colon = test system: KM12 colon
MOLT-4 leukemia = test system: MOLT-4 leukemia
HS 578T breast = test system: HS 578T breast
SR leukemia = test system: SR leukemia
K-562 leukemia = test system: K-562 leukemia
UACC-62 melanoma = test system: UACC-62 melanoma
NCI/ADR-RES ovarian = test system: NCI/ADR-RES ovarian
HOP-92 NSCLC = test system: HOP-92 NSCLC
SK-MEL-5 melanoma = test system: SK-MEL-5 melanoma
SNB-19 CNS = test system: SNB-19 CNS
U251 glioblastoma = test system: U251 glioblastoma
RPMI-8226 leukemia = test system: RPMI-8226 leukemia
SN12C renal = test system: SN12C renal
ACHN renal = test system: ACHN renal
NCI-H226 lung = test system: NCI-H226 lung
HCC-2998 colon = test system: HCC-2998 colon
NCI-H522 lung = test system: NCI-H522 lung
COLO 205 colon = test system: COLO 205 colon
MDA-MB-231 breast = test system: MDA-MB-231 breast
IGROV1 ovarian = test system: IGROV1 ovarian
NCI-H23 lung = test system: NCI-H23 lung
CCRF-CEM leukemia = test system: CCRF-CEM leukemia
UO-31 renal = test system: UO-31 renal
OVCAR-8 ovarian = test system: OVCAR-8 ovarian
BT-549 breast = test system: BT-549 breast
SW-620 colon = test system: SW-620 colon
OVCAR-4 ovarian = test system: OVCAR-4 ovarian
NCI-H322M lung = test system: NCI-H322M lung
MALME-3M melanoma = test system: MALME-3M melanoma
OVCAR-5 ovarian = test system: OVCAR-5 ovarian
NCI-H460 NSCLC = test system: NCI-H460 NSCLC
MDA-MB-468 breast = test system: MDA-MB-468 breast
CAKI-1 renal = test system: CAKI-1 renal
PC-3 prostate = test system: PC-3 prostate
SF-268 CNS = test system: SF-268 CNS
SNB-75 CNS = test system: SNB-75 CNS
SF-539 CNS = test system: SF-539 CNS
HOP-62 NSCLC = test system: HOP-62 NSCLC
MDA-MB-435 melanoma = test system: MDA-MB-435 melanoma
HT29 colon = test system: HT29 colon
EKVX NSCLC = test system: EKVX NSCLC
HCT-116 colon = test system: HCT-116 colon
T-47D breast = test system: T-47D breast
HCT-15 colon = test system: HCT-15 colon
OVCAR-3 ovarian = test system: OVCAR-3 ovarian
A498 renal = test system: A498 renal
RXF 393 renal = test system: RXF 393 renal

**Q.** How did the GI50 (KM12 colon) turn out when O=C(Nc1cccc(NS(=O)(=O)c2ccc(F)cc2)c1)c1ccc(-c2ccccc2)cc1 was run?
**A.** 3.62 µM

**Q.** What about the TGI (KM12 colon) of the same compound?
**A.** 13.2 µM

**Q.** And the GI50 (MOLT-4 leukemia)?
**A.** 1.81 µM

**Q.** What about the TGI (MOLT-4 leukemia) of the same compound?
**A.** 3.64 µM

**Q.** What about the GI50 (HS 578T breast) of the same compound?
**A.** 3.7 µM

**Q.** And the TGI (HS 578T breast)?
**A.** 15.3 µM

**Q.** And the GI50 (SR leukemia)?
**A.** 1.76 µM

**Q.** What about the TGI (SR leukemia) of the same compound?
**A.** 3.31 µM

**Q.** What about the GI50 (K-562 leukemia) of the same compound?
**A.** 2.6 µM

**Q.** What about the TGI (K-562 leukemia) of the same compound?
**A.** 11.2 µM

**Q.** And the GI50 (UACC-62 melanoma)?
**A.** 3.38 µM

**Q.** What about the TGI (UACC-62 melanoma) of the same compound?
**A.** 15 µM

**Q.** And the GI50 (NCI/ADR-RES ovarian)?
**A.** 2.55 µM

**Q.** What about the TGI (NCI/ADR-RES ovarian) of the same compound?
**A.** 9.38 µM

**Q.** What about the GI50 (HOP-92 NSCLC) of the same compound?
**A.** 2.94 µM

**Q.** And the TGI (HOP-92 NSCLC)?
**A.** 8.32 µM

**Q.** What about the GI50 (SK-MEL-5 melanoma) of the same compound?
**A.** 2.56 µM

**Q.** What about the TGI (SK-MEL-5 melanoma) of the same compound?
**A.** 7.94 µM

**Q.** What about the GI50 (SNB-19 CNS) of the same compound?
**A.** 4.04 µM

**Q.** And the TGI (SNB-19 CNS)?
**A.** 21.7 µM

**Q.** And the GI50 (U251 glioblastoma)?
**A.** 2.35 µM

**Q.** And the TGI (U251 glioblastoma)?
**A.** 5.72 µM

**Q.** What about the GI50 (RPMI-8226 leukemia) of the same compound?
**A.** 1.47 µM

**Q.** What about the TGI (RPMI-8226 leukemia) of the same compound?
**A.** 3.75 µM

**Q.** And the GI50 (SN12C renal)?
**A.** 3.45 µM

**Q.** And the TGI (SN12C renal)?
**A.** 11.8 µM

**Q.** What about the GI50 (ACHN renal) of the same compound?
**A.** 4.13 µM

**Q.** What about the TGI (ACHN renal) of the same compound?
**A.** 21.6 µM

**Q.** And the GI50 (NCI-H226 lung)?
**A.** 5.91 µM

**Q.** What about the TGI (NCI-H226 lung) of the same compound?
**A.** 20.7 µM

**Q.** What about the GI50 (HCC-2998 colon) of the same compound?
**A.** 6.02 µM

**Q.** What about the TGI (HCC-2998 colon) of the same compound?
**A.** 21.2 µM

**Q.** And the GI50 (NCI-H522 lung)?
**A.** 3.6 µM

**Q.** And the TGI (NCI-H522 lung)?
**A.** 15.2 µM

**Q.** And the GI50 (COLO 205 colon)?
**A.** 4.33 µM

**Q.** What about the TGI (COLO 205 colon) of the same compound?
**A.** 17.2 µM

**Q.** What about the GI50 (MDA-MB-231 breast) of the same compound?
**A.** 3.72 µM

**Q.** And the TGI (MDA-MB-231 breast)?
**A.** 18.3 µM

**Q.** What about the GI50 (IGROV1 ovarian) of the same compound?
**A.** 10.4 µM

**Q.** And the TGI (IGROV1 ovarian)?
**A.** 37.1 µM

**Q.** And the GI50 (NCI-H23 lung)?
**A.** 2.53 µM

**Q.** What about the TGI (NCI-H23 lung) of the same compound?
**A.** 8.44 µM

**Q.** And the GI50 (CCRF-CEM leukemia)?
**A.** 2.33 µM

**Q.** And the TGI (CCRF-CEM leukemia)?
**A.** 5.8 µM

**Q.** What about the GI50 (UO-31 renal) of the same compound?
**A.** 3.59 µM

**Q.** And the TGI (UO-31 renal)?
**A.** 13.5 µM

**Q.** And the GI50 (OVCAR-8 ovarian)?
**A.** 3.57 µM

**Q.** What about the TGI (OVCAR-8 ovarian) of the same compound?
**A.** 13.3 µM

**Q.** What about the GI50 (BT-549 breast) of the same compound?
**A.** 2.89 µM

**Q.** And the TGI (BT-549 breast)?
**A.** 8.64 µM

**Q.** And the GI50 (SW-620 colon)?
**A.** 4.54 µM

**Q.** And the TGI (SW-620 colon)?
**A.** 16.2 µM

**Q.** And the GI50 (OVCAR-4 ovarian)?
**A.** 3.85 µM

**Q.** And the TGI (OVCAR-4 ovarian)?
**A.** 18.2 µM

**Q.** And the GI50 (NCI-H322M lung)?
**A.** 3.9 µM

**Q.** What about the TGI (NCI-H322M lung) of the same compound?
**A.** 19.7 µM

**Q.** What about the GI50 (MALME-3M melanoma) of the same compound?
**A.** 4.23 µM

**Q.** And the TGI (MALME-3M melanoma)?
**A.** 17.4 µM

**Q.** And the GI50 (OVCAR-5 ovarian)?
**A.** 7.57 µM

**Q.** What about the TGI (OVCAR-5 ovarian) of the same compound?
**A.** 26.7 µM

**Q.** And the GI50 (NCI-H460 NSCLC)?
**A.** 3.23 µM

**Q.** What about the TGI (NCI-H460 NSCLC) of the same compound?
**A.** 10.4 µM

**Q.** And the GI50 (MDA-MB-468 breast)?
**A.** 3.1 µM

**Q.** What about the TGI (MDA-MB-468 breast) of the same compound?
**A.** 8.43 µM

**Q.** And the GI50 (CAKI-1 renal)?
**A.** 5.85 µM

**Q.** What about the TGI (CAKI-1 renal) of the same compound?
**A.** 26.6 µM

**Q.** And the GI50 (PC-3 prostate)?
**A.** 3.36 µM

**Q.** And the TGI (PC-3 prostate)?
**A.** 11.5 µM

**Q.** And the GI50 (SF-268 CNS)?
**A.** 3.93 µM

**Q.** What about the TGI (SF-268 CNS) of the same compound?
**A.** 17.2 µM

**Q.** And the GI50 (SNB-75 CNS)?
**A.** 5.65 µM

**Q.** What about the TGI (SNB-75 CNS) of the same compound?
**A.** 25.1 µM

**Q.** What about the GI50 (SF-539 CNS) of the same compound?
**A.** 3.17 µM

**Q.** What about the TGI (SF-539 CNS) of the same compound?
**A.** 11.1 µM

**Q.** What about the GI50 (HOP-62 NSCLC) of the same compound?
**A.** 3.85 µM

**Q.** What about the TGI (HOP-62 NSCLC) of the same compound?
**A.** 11.6 µM

**Q.** What about the GI50 (MDA-MB-435 melanoma) of the same compound?
**A.** 4.59 µM

**Q.** And the TGI (MDA-MB-435 melanoma)?
**A.** 17.1 µM

**Q.** And the GI50 (HT29 colon)?
**A.** 4.49 µM

**Q.** What about the TGI (HT29 colon) of the same compound?
**A.** 21.5 µM

**Q.** And the GI50 (EKVX NSCLC)?
**A.** 3.09 µM

**Q.** What about the TGI (EKVX NSCLC) of the same compound?
**A.** 12.3 µM

**Q.** And the GI50 (HCT-116 colon)?
**A.** 3.54 µM

**Q.** And the TGI (HCT-116 colon)?
**A.** 12.6 µM

**Q.** What about the GI50 (T-47D breast) of the same compound?
**A.** 2.03 µM

**Q.** And the TGI (T-47D breast)?
**A.** 9.91 µM

**Q.** And the GI50 (HCT-15 colon)?
**A.** 4.05 µM

**Q.** And the TGI (HCT-15 colon)?
**A.** 19.5 µM

**Q.** And the GI50 (OVCAR-3 ovarian)?
**A.** 7.05 µM

**Q.** What about the TGI (OVCAR-3 ovarian) of the same compound?
**A.** 20 µM

**Q.** And the GI50 (A498 renal)?
**A.** 4.4 µM

**Q.** And the TGI (A498 renal)?
**A.** 16.8 µM

**Q.** What about the GI50 (RXF 393 renal) of the same compound?
**A.** 2.02 µM

**Q.** What about the TGI (RXF 393 renal) of the same compound?
**A.** 4.91 µM
